Laboratory results reported in ChEMBL document CHEMBL1130618, “A novel and practical route to A-ring enyne synthon for 1 alpha,25-dihydroxyvitamin D3 analogs: synthesis of A-ring diastereomers of 1 alpha,25-dihydroxyvitamin D2 and 3-methyl-1,25-dihydroxyvitamin D3” (1998).

Legend:
HL-60 [1] = assay: HL-60 cell differentiation relative to 1-alpha, 25-dihydroxyvitamin D3; type: functional, Homo sapiens
Rattus norvegicus [2] = organism: Rattus norvegicus; assay: Compound was evaluated for rat serum Ca concentration in relative to 1-alpha, 25-dihydroxyvitamin D3; type: functional
HL-60 [3] = assay: Effect on HL-60 cell differentiation; type: functional, Homo sapiens
Rattus norvegicus [4] = organism: Rattus norvegicus; assay: Compound was evaluated for rat serum Ca concentration; type: functional
[5] = biological target: T1, Vitamin D3 receptor (Bos taurus) (UniProt Q28037); assay: Binding affinity for bovine thymus Vitamin D3 receptor (VDR)
T1 sequence (whole entry): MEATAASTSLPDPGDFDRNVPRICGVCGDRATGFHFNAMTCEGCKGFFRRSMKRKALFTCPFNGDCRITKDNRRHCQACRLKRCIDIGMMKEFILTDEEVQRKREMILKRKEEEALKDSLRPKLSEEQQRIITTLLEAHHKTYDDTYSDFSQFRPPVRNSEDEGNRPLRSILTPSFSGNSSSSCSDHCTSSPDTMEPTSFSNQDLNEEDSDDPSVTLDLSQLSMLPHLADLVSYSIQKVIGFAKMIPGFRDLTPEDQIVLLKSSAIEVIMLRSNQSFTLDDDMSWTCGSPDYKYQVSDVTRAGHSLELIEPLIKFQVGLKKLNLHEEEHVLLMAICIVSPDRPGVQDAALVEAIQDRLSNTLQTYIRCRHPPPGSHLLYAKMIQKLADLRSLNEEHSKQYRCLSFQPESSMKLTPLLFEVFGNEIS

Row | Compound | Relative potency (HL-60 [1]) | also measured
1 | C=C1/C(=C\C=C2/CCC[C@]3(C)[C@@H]([C@H](C)CCCC(C)(C)O)CC[C@@H]23)C[C@@H](O)[C@@H](C)[C@@H]1O | 10 | Relative potency (Rattus norvegicus [2]): 2
2 | C=C1/C(=C\C=C2/CCC[C@]3(C)[C@@H]([C@H](C)CCCC(C)(C)O)CC[C@@H]23)C[C@H](O)[C@@H](C)[C@H]1O | 3 | –
3 | C=C1/C(=C\C=C2/CCC[C@]3(C)[C@@H]([C@H](C)CCCC(C)(C)O)CC[C@@H]23)C[C@H](O)[C@@H](C)[C@@H]1O | 1.5 | –
4 | C=C1/C(=C\C=C2/CCC[C@]3(C)[C@@H]([C@H](C)CCCC(C)(C)O)CC[C@@H]23)C[C@@H](O)C[C@@H]1O [CALCITRIOL] | – | Relative potency (HL-60 [3]): 100; Relative potency (Rattus norvegicus [4]): 100; Relative potency [5]: 100
5 | C=C1/C(=C\C=C2/CCC[C@]3(C)[C@@H]([C@H](C)CCCC(C)(C)O)CC[C@@H]23)C[C@@H](O)[C@H](C)[C@H]1O | 1 | –
6 | C=C1/C(=C\C=C2/CCC[C@]3(C)[C@@H]([C@H](C)CCCC(C)(C)O)CC[C@@H]23)C[C@@H](O)[C@@H](C)[C@H]1O | 1.5 | –
7 | C=C1/C(=C\C=C2/CCC[C@]3(C)[C@@H]([C@H](C)CCCC(C)(C)O)CC[C@@H]23)C[C@H](O)[C@H](C)[C@H]1O | 0.5 | –
8 | C=C1/C(=C\C=C2/CCC[C@]3(C)[C@@H]([C@H](C)CCCC(C)(C)O)CC[C@@H]23)C[C@@H](O)[C@H](C)[C@@H]1O | 200 | Relative potency (Rattus norvegicus [2]): 400
